{
  "source": "patent US20200190592A1",
  "about": "“PME-1 AS A BIOMARKER TO PREDICT AND DIAGNOSE AN INCREASED RISK OF ENDOMETRIAL CANCER AND GENE SILENCING OF PME-1 TO INHIBIT EPITHELIAL TO MESENCHYMAL TRANSITION” (Medical Diagnostic Laboratories, L.L.C., priority 2018, published 2020)",
  "key": {"[1]": {"system": "DcR2", "experiment": "Senescence assay (Western for DcR2)", "type": "cell-based, human", "details": "RL95-2 lysates, GAPDH loading control", "method": "We next analyzed cell lysates taken from RL95-2 cells that expressed either empty vector (Control), overexpressed PME-1 (+PME-1) or expressed shRNA against PME-1 (−PME-1) for DcR2 protein.\n15 μg of protein was used for western analysis. PME-1 antibody (Santa Cruz) and COXIV (Cell Signaling Technologies) were used for detection of proteins and the blots were developed using chemiluminescence (Pierce ECL Western Blotting Substrate—Thermo Scientific) on the GE ImageQuant LAS 4000. For analysis of Akt, ERK, and β-catenin signaling in tissue culture, western analyses were completed as follows. RL95-2 cells stably infected with lentivirus expressing constructs were selected with puromycin (Invivogen). The cells were incubated with either 50 μM Akt inhibitor (LY 294002, Cell Signaling Technologies) or 40 μM ERK inhibitor (V0126, Cell Signaling Technologies) for 1-2 hours at 37° C. 1.5× Laemelli buffer (0.5 M Tris pH6.8, […], 10% sodium dodecyl sulfate, 100 mM EDTA) was used to prepare cell lysates. 20 μg of protein was used for western analysis. Primary antibodies used were: P-Akt (Ser473), P-Akt (Thr308), pan-Akt, P-ERK (Thr202/204), total ERK (Cell Signaling Technologies), PME-1 (Santa Cruz), phospho-β-catenin (Ser45, Cell Signaling Technologies), phospho-β-catenin (Ser33/37/Thr41, Cell Signaling Technologies), β-catenin (Abcam), DcR2 (Abcam), and GAPDH (Abcam). […]"}, "[2]": {"system": "β-catenin", "experiment": "Western analysis of β-catenin in RL95-2 cells", "type": "cell-based, human", "text": "We performed Western blot analysis in RL95-2 cells that were expressing empty vector (Control), over-expressing PME-1 (+PME-1) or expressing shRNA against PME-1 (−PME-1) to examine the protein stability of β-catenin (FIG. 19A). We observed a decrease in total β-catenin protein in cells that were over-expressing PME-1. This observation is correlated with the predicted ubiquitylation of β-catenin and its degradation. Conversely, a depletion of PME-1 led to stabilization of total β-catenin (FIG. 19A).\nIn another series of study, we performed a similar assay in which cells were treated with 10 μM MG-132 prior to protein extraction. MG-132 is a proteasome inhibitor and therefore allows for the accumulation of phosphorylated β-catenin, which is normally quickly degraded, to be detected by western analysis.\n15 μg of protein was used for western analysis. PME-1 antibody (Santa Cruz) and COXIV (Cell Signaling Technologies) were used for detection of proteins and the blots were developed using chemiluminescence (Pierce ECL Western Blotting Substrate—Thermo Scientific) on the GE ImageQuant LAS 4000. For analysis of Akt, ERK, and β-catenin signaling in tissue culture, western analyses were completed as follows. RL95-2 cells stably infected with lentivirus expressing constructs were selected with puromycin (Invivogen). […]"}},
  "data": [
    {"substance": "shPPME1 no. 2: shRNA targeting PPME1, SEQ ID NO: 2: GCAGCGATTATTAGTAGAGTT, bp 289-309; used for all subsequent experiments (guide GCAGCGATTATTAGTAGAGTT; listed as Homo sapiens)", "values": [
      {"measurement": "senescent marker protein DcR2", "setting": "[1]", "result": "increase"},
      {"measurement": "total β-catenin", "setting": "[2]; absence of MG-132", "result": "stabilization"},
      {"measurement": "phosphorylated β-catenin", "setting": "[2]; cells treated with 10 μM MG-132, compared to control cells", "result": "did not lead to an increase"}
    ]}
  ]
}
